Literature values, collected in article PMC10644327, “A randomized, double‐blind phase 1b study evaluating the safety, tolerability, pharmacokinetics and pharmacodynamics of the NLRP3 inhibitor selnoflast in patients with moderate to severe active ulcerative colitis” (Clinical and Translational Medicine, 2023).

Set-up: method as in earlier work
Details: added to standard‐of‐care therapy, patients with acute severe UC; cited from earlier work

## anakinra
  Clinical outcome: did not improve the clinical outcome
